Reference: ChEMBL document CHEMBL1201862, “PubChem BioAssay data set” (2004)
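Interpolation was linear, between the two tested concentrations surrounding the appropriate level; five concentrations were tested over 48 hours in 96-well plates. At the GI50, growth is halved.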 Calls of active or inactive are those of the source. Rule as the data show it: active = GI50 up to about 1.1 µM and inactive = higher.

What was measured:
Experiment in all cases: NCI tumour cell line growth inhibition, 48 h
MDA-MB-231 = system: MDA-MB-231
OVCAR-4 = system: OVCAR-4
NCI-H23 = system: NCI-H23
SF-295 = system: SF-295
SNB-19 = system: SNB-19
HCT-116 = system: HCT-116
A498 = system: A498
SK-OV-3 = system: SK-OV-3
OVCAR-3 = system: OVCAR-3
IGROV-1 = system: IGROV-1
HOP-62 = system: HOP-62
786-0 = system: 786-0
SK-MEL-2 = system: SK-MEL-2
NCI-H522 = system: NCI-H522
LOX IMVI = system: LOX IMVI
Hs-578T = system: Hs-578T
NCI/ADR-RES = system: NCI/ADR-RES
PC-3 = system: PC-3
MCF7 = system: MCF7
CCRF-CEM = system: CCRF-CEM

O=C1C=C2CCC[C@H]3OC(=O)C[C@@]23CC1
GI50 (MDA-MB-231): > 100 µM (inactive) | GI50 (OVCAR-4): > 100 µM (inactive) | GI50 (NCI-H23): > 100 µM (inactive) | GI50 (SF-295): > 100 µM (inactive) | GI50 (SNB-19): > 100 µM (inactive) | GI50 (HCT-116): > 100 µM (inactive) | GI50 (A498): > 100 µM (inactive) | GI50 (SK-OV-3): > 100 µM (inactive) | GI50 (OVCAR-3): > 100 µM (inactive) | GI50 (IGROV-1): > 100 µM (inactive) | GI50 (HOP-62): > 100 µM (inactive) | GI50 (786-0): > 100 µM (inactive) | GI50 (SK-MEL-2): > 100 µM (inactive) | GI50 (NCI-H522): > 100 µM (inactive) | GI50 (LOX IMVI): > 100 µM (inactive) | GI50 (Hs-578T): > 100 µM (inactive) | GI50 (NCI/ADR-RES): > 100 µM (inactive) | GI50 (PC-3): > 100 µM (inactive)

CCOc1ccccc1Nc1ccc(N)cc1S(=O)(=O)O
GI50 (MDA-MB-231): > 100 µM (inactive) | GI50 (OVCAR-4): > 100 µM (inactive) | GI50 (NCI-H23): > 100 µM (inactive) | GI50 (SF-295): > 100 µM (inactive) | GI50 (SNB-19): > 100 µM (inactive) | GI50 (HCT-116): > 100 µM (inactive) | GI50 (A498): > 100 µM (inactive) | GI50 (OVCAR-3): > 100 µM (inactive) | GI50 (IGROV-1): > 100 µM (inactive) | GI50 (HOP-62): > 100 µM (inactive) | GI50 (786-0): > 100 µM (inactive) | GI50 (SK-MEL-2): > 100 µM (inactive) | GI50 (NCI-H522): > 100 µM (inactive) | GI50 (LOX IMVI): > 100 µM (inactive) | GI50 (Hs-578T): > 100 µM (inactive) | GI50 (NCI/ADR-RES): > 100 µM (inactive) | GI50 (PC-3): > 100 µM (inactive)

COc1ccccc1-c1nc[nH]c1-c1ccccc1OC
GI50 (MDA-MB-231): 21.7 µM (inactive) | GI50 (OVCAR-4): 25.8 µM (inactive) | GI50 (NCI-H23): 27.4 µM (inactive) | GI50 (SF-295): 26 µM (inactive) | GI50 (SNB-19): 35.2 µM (inactive) | GI50 (HCT-116): 31.8 µM (inactive) | GI50 (A498): 27.7 µM (inactive) | GI50 (SK-OV-3): 36.1 µM (inactive) | GI50 (OVCAR-3): 24.2 µM (inactive) | GI50 (IGROV-1): 29 µM (inactive) | GI50 (HOP-62): 40.8 µM (inactive) | GI50 (786-0): 35.5 µM (inactive) | GI50 (SK-MEL-2): 28.5 µM (inactive) | GI50 (MCF7): 24.8 µM (inactive) | GI50 (NCI-H522): 13.2 µM (inactive) | GI50 (LOX IMVI): 16.8 µM (inactive) | GI50 (NCI/ADR-RES): 22 µM (inactive) | GI50 (PC-3): 18.6 µM (inactive)

Cc1c(N)nc([C@H](CC(N)=O)NC[C@H](N)C(N)=O)nc1C(=O)N[C@H](C(=O)N[C@H](C)[C@@H](O)[C@H](C)C(=O)N[C@H](C(=O)NCCc1nc(-c2nc(C(=O)NCCC[S+](C)C)cs2)cs1)[C@@H](C)O)C(OC1OC(CO)C(O)C(O)C1OC1OC(CO)C(O)C(OC(N)=O)C1O)c1c[nH]cn1 (some centres undefined)
GI50 (MDA-MB-231): 15.8 µM (inactive) | GI50 (OVCAR-4): 4.92 µM (inactive) | GI50 (NCI-H23): 0.637 µM (active) | GI50 (SF-295): 0.114 µM (active) | GI50 (SNB-19): 3.96 µM (inactive) | GI50 (HCT-116): 0.415 µM (active) | GI50 (A498): 3.24 µM (inactive) | GI50 (SK-OV-3): 6.46 µM (inactive) | GI50 (OVCAR-3): 4.67 µM (inactive) | GI50 (IGROV-1): 2.29 µM (inactive) | GI50 (HOP-62): 0.0838 µM (active) | GI50 (786-0): 1.05 µM (active) | GI50 (SK-MEL-2): 13.7 µM (inactive) | GI50 (MCF7): 2.45 µM (inactive) | GI50 (NCI-H522): 0.622 µM (active) | GI50 (LOX IMVI): 0.161 µM (active) | GI50 (CCRF-CEM): 6.75 µM (inactive) | GI50 (NCI/ADR-RES): 0.904 µM (active) | GI50 (PC-3): 7.73 µM (inactive)

O=C(/N=N/c1ccc(Cl)cc1Cl)NNc1ccc(Cl)cc1Cl
GI50 (MDA-MB-231): 20.7 µM (inactive) | GI50 (OVCAR-4): 13.3 µM (inactive) | GI50 (NCI-H23): 17.1 µM (inactive) | GI50 (SNB-19): 28.6 µM (inactive) | GI50 (HCT-116): 13.9 µM (inactive) | GI50 (A498): 15.7 µM (inactive) | GI50 (OVCAR-3): 15.9 µM (inactive) | GI50 (IGROV-1): 27 µM (inactive) | GI50 (HOP-62): 1.75 µM (inactive) | GI50 (786-0): 15.3 µM (inactive) | GI50 (SK-MEL-2): 12.9 µM (inactive) | GI50 (NCI-H522): 19.1 µM (inactive) | GI50 (LOX IMVI): 16.5 µM (inactive) | GI50 (CCRF-CEM): 20.2 µM (inactive) | GI50 (PC-3): 12.2 µM (inactive)

N=C(N)NS(=O)(=O)c1ccc(NC(=O)c2cccc3c(N)c4ccccc4nc23)cc1
GI50 (OVCAR-4): > 100 µM (inactive) | GI50 (NCI-H23): > 100 µM (inactive) | GI50 (SF-295): > 100 µM (inactive) | GI50 (SNB-19): 26.7 µM (inactive) | GI50 (HCT-116): > 100 µM (inactive) | GI50 (A498): > 100 µM (inactive) | GI50 (SK-OV-3): > 100 µM (inactive) | GI50 (OVCAR-3): 84.9 µM (inactive) | GI50 (IGROV-1): > 100 µM (inactive) | GI50 (HOP-62): > 100 µM (inactive) | GI50 (786-0): > 100 µM (inactive) | GI50 (SK-MEL-2): > 100 µM (inactive) | GI50 (NCI-H522): > 100 µM (inactive) | GI50 (LOX IMVI): > 100 µM (inactive) | GI50 (CCRF-CEM): 92.3 µM (inactive)

CC(C)CCNC(=O)c1ccc(CNC(=O)/C=C/c2ccc3ccccc3c2)cc1
GI50 (MDA-MB-231): > 100 µM (inactive) | GI50 (OVCAR-4): 59.3 µM (inactive) | GI50 (NCI-H23): > 100 µM (inactive) | GI50 (SF-295): > 100 µM (inactive) | GI50 (SNB-19): > 100 µM (inactive) | GI50 (HCT-116): > 100 µM (inactive) | GI50 (A498): > 100 µM (inactive) | GI50 (SK-OV-3): > 100 µM (inactive) | GI50 (OVCAR-3): > 100 µM (inactive) | GI50 (HOP-62): > 100 µM (inactive) | GI50 (786-0): > 100 µM (inactive) | GI50 (SK-MEL-2): > 100 µM (inactive) | GI50 (MCF7): > 100 µM (inactive) | GI50 (LOX IMVI): > 100 µM (inactive) | GI50 (CCRF-CEM): > 10 µM (inactive) | GI50 (NCI/ADR-RES): > 100 µM (inactive) | GI50 (PC-3): > 100 µM (inactive)

O=C1CC(C2(O)C(=O)Nc3ccc([N+](=O)[O-])cc32)c2ccccc21 (centres undefined)
GI50 (OVCAR-4): 20 µM (inactive) | GI50 (NCI-H23): 26.7 µM (inactive) | GI50 (SF-295): 34.1 µM (inactive) | GI50 (SNB-19): > 100 µM (inactive) | GI50 (HCT-116): 31.3 µM (inactive) | GI50 (A498): 72.8 µM (inactive) | GI50 (SK-OV-3): 36.5 µM (inactive) | GI50 (OVCAR-3): 25.4 µM (inactive) | GI50 (IGROV-1): 17.8 µM (inactive) | GI50 (HOP-62): 64 µM (inactive) | GI50 (786-0): 15.8 µM (inactive) | GI50 (SK-MEL-2): 16.6 µM (inactive) | GI50 (NCI-H522): 11.2 µM (inactive) | GI50 (LOX IMVI): 16.8 µM (inactive) | GI50 (CCRF-CEM): 19.5 µM (inactive)
